{"source": "patent US10626094B2", "about": "(La Jolla Institute of Allergy & Immunology, priority 2014, dated 2020)", "key": {"[1]": {"biological_target": "LYP-1 (lymphoid phosphatase, LYP) (Homo sapiens (Human), UniProt Q9Y2R2)", "sequence (Q9Y2R2 whole entry, species assumed)": "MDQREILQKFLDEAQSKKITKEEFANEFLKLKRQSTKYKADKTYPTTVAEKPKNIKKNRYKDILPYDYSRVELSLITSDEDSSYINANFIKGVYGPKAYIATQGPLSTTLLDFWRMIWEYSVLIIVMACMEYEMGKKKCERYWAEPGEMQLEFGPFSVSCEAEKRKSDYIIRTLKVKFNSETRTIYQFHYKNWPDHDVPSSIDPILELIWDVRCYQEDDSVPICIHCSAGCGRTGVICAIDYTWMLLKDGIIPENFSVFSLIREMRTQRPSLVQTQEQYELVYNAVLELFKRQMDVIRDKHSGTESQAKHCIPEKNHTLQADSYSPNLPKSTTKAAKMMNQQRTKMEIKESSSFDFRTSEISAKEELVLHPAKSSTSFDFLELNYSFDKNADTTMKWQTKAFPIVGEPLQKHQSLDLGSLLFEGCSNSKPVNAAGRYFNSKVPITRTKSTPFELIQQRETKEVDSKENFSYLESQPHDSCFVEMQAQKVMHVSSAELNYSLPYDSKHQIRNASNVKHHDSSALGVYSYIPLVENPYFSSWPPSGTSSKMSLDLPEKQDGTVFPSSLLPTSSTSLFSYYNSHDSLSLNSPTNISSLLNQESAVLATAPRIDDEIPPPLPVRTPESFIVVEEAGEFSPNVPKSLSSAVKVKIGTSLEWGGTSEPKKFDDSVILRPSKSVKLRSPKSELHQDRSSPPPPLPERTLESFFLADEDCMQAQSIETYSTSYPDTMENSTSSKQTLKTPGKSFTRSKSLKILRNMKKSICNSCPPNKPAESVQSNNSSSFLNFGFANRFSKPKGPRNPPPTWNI", "test": "LYP-1 phosphatase selectivity dose response assay", "assay_type": "biochemical", "source_text": "(§1) Disclosed herein is a collection of small-molecule inhibitors of the low molecular weight protein tyrosine phosphatase (LMPTP). The assays utilized in the primary and secondary screening were designed to identify allosteric inhibitors of LMPTP. […] The structure of the compounds was further optimized to generate a series of inhibitors of LMPTP-A isoform, with high selectivity over the LMPTP-B isoform, LYP and VHR, and with cellular activity. In an aspect is provided a compound having the formula: […]\n(§2) LYP-1 and VHR-1 dose response assays to assess selectivity of Compound D1 against these non-homologous phosphatases."}, "[2]": {"biological_target": "VHR-1 (VH1-related phosphatase, VHR) (Homo sapiens (Human), UniProt P51452)", "sequence (P51452 whole entry)": "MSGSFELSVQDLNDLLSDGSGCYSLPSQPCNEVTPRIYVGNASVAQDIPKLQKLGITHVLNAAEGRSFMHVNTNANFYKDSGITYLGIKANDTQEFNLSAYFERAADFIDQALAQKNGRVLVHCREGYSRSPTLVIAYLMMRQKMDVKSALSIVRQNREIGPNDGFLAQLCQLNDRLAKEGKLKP", "test": "VHR-1 phosphatase selectivity dose response assay", "assay_type": "biochemical", "source_text": "as §1, §2"}, "3T3-L1 cells": {"system": "3T3-L1 cells", "test": "insulin-based mouse 3T3-L1 adipogenesis assay (AdipoRed)", "assay_type": "cell-based", "conditions": "10 μM compound", "protocol": "The probe Compound D1 was also profiled in an insulin-based mouse 3T3-L1 adipogenesis assay. In this assay, 3T3-L1 pre-adipocytes are grown to 2-days post-confluence in DMEM with 10% bovine calf serum, and then induced to differentiate to adipocytes following stimulation for 2 days with an induction cocktail containing 1 μg/ml insulin, 1 μM dexamethasone, and 0.5 mM 3-isobutyl-1-methylxanthine in DMEM containing 10% fetal bovine serum (FBS).^44 2 days later, the media is replaced with DMEM with 10% FBS and 1 μg/ml insulin, and after 2 additional days, the media is replaced with DMEM with 10% FBS for 2 additional days, at which point adipogenesis is measured using the AdipoRed Adipogenesis Assay Reagent from Lonza, according to the manufacturer's instructions. In brief, the assay reagent is added to the wells containing cells, where it partitions into the fat droplets of differentiated adipocytes, and emits fluorescence at 572 nm that can be detected with a plate-reader. To test the effect of probe Compound D1, cells were plated into 48-well plates and allowed to grow to confluence. Cells were then treated with 10 μM Compound D1 or 0.025% DMSO, and after 2 days induced to differentiate in the presence of 10 μM Compound D1 or 0.025% DMSO. Fresh compound or DMSO was added during each media replacement."}, "[3]": {"test": "hepatic microsomal stability, human liver microsomes", "assay_type": "in vitro ADME", "source_text": "In the course of this investigation many compounds with similar potencies in the LMPTP (OMFP) assay were found. In order to determine which compound would be the best candidate for in vivo studies, an abbreviated ADME panel was ran on these compounds, a tabulation of the most interesting data on this set of compounds is illustrated in Table 3 below. From the hepatic microsome stability data the candidate selected for in vivo studies was Compound D1.\nThe microsomal stability assay is commonly used to rank compounds according to their metabolic stability. This assay addresses the pharmacologic question of how long the parent compound will remain circulating in plasma within the body."}}, "data": [{"smiles": "COc1ccc(-c2cc(NCCCN3CCCCC3)c3ccccc3n2)cc1", "note": "[Compound D1, 2-(4-methoxyphenyl)-N-(3-(piperidin-1-yl)propyl)quinolin-4-amine]", "values": [{"measurement": "Fold-Selective", "setting": "[1]; LMPTP over LYP-1", "value": ">60-fold"}, {"measurement": "IC50", "setting": "[1]; n = 2, AID743309, read-out: Anti-target LYP-1 IC50", "value": "> 80", "unit": "µM"}, {"measurement": "Fold-Selective", "setting": "[2]; LMPTP over VHR-1", "value": ">60-fold"}, {"measurement": "IC50", "setting": "[2]; n = 2, AID743310, read-out: Anti-target VHR-1 IC50", "value": "> 80", "unit": "µM"}, {"measurement": "3T3-L1 adipogenesis", "setting": "3T3-L1 cells", "value": "completely abolished"}, {"measurement": "Hepatic Microsome Stability % Remaining @ 1 hr", "setting": "[3]; Human microsomes, 1 hr", "value": 61.56, "unit": "%"}, {"measurement": "microsomal stability", "setting": "[3]; human liver microsomes after 1 hour", "value": "moderate stability"}]}]}
